Columns and labels:
migraine headache = conditions: human, in vivo
tension headache = conditions: human, in vivo

In the case of `C[C@@H]1[C@H](c2ccccc2)C[C@H](NC(=O)c2cnc3c(c2)C[C@@]2(C3)C(=O)Nc3ncccc32)C(=O)N1CC(F)(F)F` [Ubrelvy], the “benefit as rescue medication” value (migraine headache) is reported as “not helpful”.

In the case of `CN(C)CCC=C1c2ccccc2CCc2ccccc21` [amitriptyline], the “benefit as migraine prophylactic agent” value (migraine headache) is reported as “without benefit”.

With `NCC(CC(=O)O)c1ccc(Cl)cc1` (centres unmarked) [baclofen] the “benefit as migraine prophylactic agent” value (migraine headache) was “without benefit”, the “benefit as migraine prophylaxis” value (migraine headache) was “no benefit” and the “benefit from previous treatment” value (migraine headache) was “no benefit”.

With `CCCCN1CCCCC1C(=O)Nc1c(C)cccc1C` (centres unmarked) [bupivacaine] the “pain after local anesthetic injection along superior nuchal line” value (migraine headache) was “substantially improved for two days”.

With `Oc1ccc2c(c1)[C@@]13CCCC[C@@]1(O)[C@@H](C2)N(CC1CCC1)CC3` [butorphanol] the “benefit as rescue medication” value (migraine headache) was “without benefit”.

In the case of `NC(=O)N1c2ccccc2C=Cc2ccccc21` [carbamazepine], the “benefit as migraine prophylactic agent” value (migraine headache) is reported as “without benefit”.

With `COC1=C(OC)C(=O)C(C/C=C(\C)CC/C=C(\C)CC/C=C(\C)CC/C=C(\C)CC/C=C(\C)CC/C=C(\C)CC/C=C(\C)CC/C=C(\C)CC/C=C(\C)CCC=C(C)C)=C(C)C1=O` [coenzyme Q10] the “benefit as migraine prophylactic agent” value (migraine headache) was “without benefit”, the “benefit as migraine prophylaxis” value (migraine headache) was “no benefit” and the “effect on headache frequency” value (migraine headache) was “did not affect the frequency of their headaches”.

With `O=C(O)Cc1ccccc1Nc1c(Cl)cccc1Cl` [diclofenac] the “benefit as rescue medication” value (migraine headache) was “without benefit”.

With `CN1CCC[C@@H]1Cc1c[nH]c2ccc(CCS(=O)(=O)c3ccccc3)cc12` [eletriptan] the “benefit as rescue medication” value (migraine headache) was “consistently effective”.

In the case of `NCC1(CC(=O)O)CCCCC1` [gabapentin], the “benefit as migraine prophylactic agent” value (migraine headache) is reported as “without benefit”, the “benefit as migraine prophylaxis” value (migraine headache) is reported as “no benefit” and the “benefit from previous treatment” value (migraine headache) is reported as “no benefit”.

For `CC(C)Cc1ccc(C(C)C(=O)O)cc1` (centres unmarked) [ibuprofen], the “headache relief” value (tension headache) was “may resolve with ibuprofen” and the “benefit from previous treatment” value (migraine headache) was “no benefit”.

With `CCCCc1nc(Cl)c(CO)n1Cc1ccc(-c2ccccc2-c2nn[nH]n2)cc1` [losartan] the “benefit as migraine prophylaxis” value (migraine headache) was “no benefit”.

`CCN(CC)CCNC(=O)c1cc(Cl)c(N)cc1OC` [metoclopramide] was tested, and the “tolerability” value (migraine headache) was “intolerant”.

In the case of `C[C@]12C=CC(=O)C=C1CC[C@@H]1[C@@H]2C(=O)C[C@@]2(C)[C@H]1CC[C@]2(O)C(=O)CO` [prednisone], the “benefit as migraine prophylactic agent” value (migraine headache) is reported as “without benefit”.

In the case of `CC(C)C[C@H](CN)CC(=O)O` [pregabalin], the “comorbid neuropathic facial pain” value (tension headache) is reported as “treated effectively” and the “benefit as migraine prophylactic agent” value (migraine headache) is reported as “without benefit”.

In the case of `CC(C)NCC(O)COc1cccc2ccccc12` (centres unmarked) [propranolol], the “benefit as migraine prophylactic agent” value (migraine headache) is reported as “without benefit”, the “benefit from previous treatment” value (migraine headache) is reported as “no benefit” and the “tolerability” value (migraine headache) is reported as “caused dizziness”.

`Cc1cc2nc3c(=O)[nH]c(=O)nc-3n(C[C@H](O)[C@H](O)[C@H](O)CO)c2cc1C` [riboflavin] was tested, and the “effect on headache frequency” value (migraine headache) was “did not affect the frequency of their headaches”.

`CN(C)CCc1c[nH]c2ccc(Cn3cncn3)cc12` [rizatriptan] was tested, and the “adverse effect of rescue medication” value (migraine headache) was “severe elevation in their blood pressure”, the “benefit as rescue medication” value (migraine headache) was “no longer effective” and the “share of time the rescue medication worked” value (migraine headache) was “approximately 20 % of the time”.

In the case of `Clc1ccc2nsnc2c1NC1=NCCN1` [tizanidine], the “benefit as migraine prophylactic agent” value (migraine headache) is reported as “without benefit” and the “benefit as migraine prophylaxis” value (migraine headache) is reported as “partially helpful”.

In the case of `CC1(C)O[C@@H]2[C@@H](CO[C@@]3(COS(N)(=O)=O)OC(C)(C)O[C@@H]23)O1` [topiramate], the “benefit as migraine prophylactic agent” value (migraine headache) is reported as “without benefit”, the “severe migraine headache frequency” value (migraine headache) is reported as 5 to 7 days a week and the “tolerability” value (migraine headache) is reported as “could not tolerate the side effects”.

`CCCC(CCC)C(=O)O` [valproic acid] was tested, and the “benefit as migraine prophylactic agent” value (migraine headache) was “without benefit”.

For `CN(C)CCc1c[nH]c2ccc(C[C@H]3COC(=O)N3)cc12` [zolmitriptan nasal spray, zolmitriptan], the “benefit as rescue medication” value (migraine headache) was “without benefit”.

In the case of `NS(=O)(=O)Cc1noc2ccccc12` [zonisamide], the “benefit as migraine prophylactic agent” value (migraine headache) is reported as “without benefit”.

B1: Ajovy: prophylactic agent tried for migraines (antibody, chains of the INN, looked up, V domains shown)
VH: EVQLVESGGGLVQPGGSLRLSCAASGFTFSNYWISWVRQAPGKGLEWVAEIRSESDASATHYAEAVKGRFTISRDNAKNSLYLQMNSLRAEDTAVYYCLAYFDYGLAIQNYWGQGTLVTVSS
VL: EIVLTQSPATLSLSPGERATLSCKASKRVTTYVSWYQQKPGQAPRLLIYGASNRYLGIPARFSGSGSGTDFTLTISSLEPEDFAVYYCSQSYNYPYTFGQGTKLEIK
For B1, the “benefit as migraine prophylactic agent” value (migraine headache) was “without benefit”.

B2: Emgality: prophylactic agent prescribed for chronic migraine (antibody, chains of the INN, looked up, V domains shown)
VH: QVQLVQSGAEVKKPGSSVKVSCKASGYTFGNYWMQWVRQAPGQGLEWMGAIYEGTGKTVYIQKFADRVTITADKSTSTAYMELSSLRSEDTAVYYCARLSDYVSGFGYWGQGTTVTVSS
VL: DIQMTQSPSSLSASVGDRVTITCRASKDISKYLNWYQQKPGKAPKLLIYYTSGYHSGVPSRFSGSGSGTDFTLTISSLQPEDFATYYCQQGDALPPTFGGGTKVEIK
In the case of B2, the “frequency of headaches with throbbing, light and sound sensitivity” value (tension headache) is reported as “decreased to around once or twice per week”, the “benefit as migraine prophylactic agent” value (migraine headache) is reported as “without benefit” and the “benefit of subsequent treatment” value (migraine headache) is reported as “reduced the pain somewhat, but had not reduced the frequency or duration”. The migraine frequency (migraine headache) was 2 to 3 days/week and the “tolerability” value (migraine headache) was “caused unwanted side effects”.

Source: US20250387426A1 (priority 2024, published 2025)
